Where a name gives a salt, the structure may show the parent alone.

The values that follow come from patent publication US7365095B2, “Chromane and chromene derivatives and uses thereof” (Wyeth, priority 2005, dated 2008).

Data set [1] concerns the target T1, human 5-hydroxytryptamine-2C (h5-HT2C) receptor (Homo sapiens, UniProt P28335).
T1 construct: expressed in transfected cells; host or cells: CHO (Chinese Hamster Ovary) cells; membrane preparation
T1 sequence (P28335 33-458): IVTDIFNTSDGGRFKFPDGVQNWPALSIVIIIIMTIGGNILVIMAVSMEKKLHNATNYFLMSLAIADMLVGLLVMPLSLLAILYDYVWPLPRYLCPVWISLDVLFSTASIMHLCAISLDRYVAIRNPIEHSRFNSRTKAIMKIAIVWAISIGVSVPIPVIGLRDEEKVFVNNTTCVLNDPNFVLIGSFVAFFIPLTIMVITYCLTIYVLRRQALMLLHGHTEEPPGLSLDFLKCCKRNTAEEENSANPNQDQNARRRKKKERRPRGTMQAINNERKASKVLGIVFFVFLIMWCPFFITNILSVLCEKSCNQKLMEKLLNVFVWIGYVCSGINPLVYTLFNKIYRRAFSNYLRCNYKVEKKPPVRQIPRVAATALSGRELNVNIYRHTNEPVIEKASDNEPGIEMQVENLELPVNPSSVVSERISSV
As to the kind of experiment: [125I]DOI binding to membranes of CHO cells expressing h5-HT2C receptor. To be noted: read-out: 5-HT2C Binding Ki avg.

The next data set deals with T2, human 5-HT2C receptor (Homo sapiens, UniProt P28335).
T2 sequence (P28335 33-458): T1 sequence (P28335 33-458)
As to the kind of experiment: calcium mobilization (FLIPR) in CHO cells stably expressing the human 5-HT2C receptor. In kind it is cell-based. As to conditions: for Emax: CHO, read-out: 5-HT2C Function EMax (%); for EC50: calcium mobilization, read-out: 5-HT2C Function EC50. A general note: Calcium assays in cells follow changes in intracellular calcium, usually with a dye or a luminescent sensor.

Data set [2] is described as follows: obesity model, reduction of food intake in C57BL/6J-DIO mice. It counts as in vivo. On the procedure: (§1) To evaluate acute in vivo efficacy of various compounds, 7 weeks-old male C57BL/6J mice are obtained from The Jackson Laboratory (Bar Harbor, Me.) and 6 weeks-old lean Zucker fa/? rats are purchased from Charles River Laboratories (Wilmington, Mass.). Mice and rats are single housed in a temperature-controlled (25° C.) facility with a 12-h light/dark cycle. Animals are allowed normal chow diet (Rodent chow #5001, PharmaServ, Framingham, Mass.) and water ad libitum. After one week acclimation, animals are randomized to vehicle (saline) or treatment groups. Animals are fasted overnight (16 hrs) and orally dosed with vehicle or compounds. Thirty minutes after compound administration, animals are given a weighed amount of food, and food intake was recorded 30 minutes, 1 h, 2 h, 4 h, 7 h and 24 h after refeeding.
(§2) To assess in vivo efficacy of various 5-HT2C compounds on weight loss, 5 weeks-old male C57BL/6J-DIO mice were fed a high-fat high-sucrose diet (58 kcal % fat, 16.4 kcal % protein, 25.5 kcal % carbohydrate) for 11 weeks. 6 weeks-old male Zucker fa/fa rats purchased from Charles River Laboratories were also used. Mice and rats were single housed in a temperature-controlled (25° C.) facility with a 12-h light/dark cycle. Animals were allowed food and water ad libitum. After one week acclimation, animals were randomized to vehicle (saline) or treatment groups. Animals were orally dosed once daily for 14 days. Body weight, food consumption, and/or body composition (NMR) were recorded. Epidydimal adipose tissue was collected at the end of the study.

The nature of data set [3]: obesity model, reduction of food intake in Zucker rats. In kind it is in vivo. On the procedure: as §1, §2

What is called melting point is the temperature of the solid-liquid transition. Consider `NC[C@H]1CCc2ccc(F)c(-c3ccc(Cl)cc3Cl)c2O1` (as salt: hydrochloride), for which the melting point was in the range of 164 to 166 °C.

Usually Ki stands for a measure of affinity in units of concentration, obtained from inhibition or displacement. Usually Emax stands for the maximal effect, on the per cent scale that the assay sets. What is called EC50 is the concentration at which the effect is half-maximal. For `NC[C@H]1CCc2cccc(-c3c(Cl)cccc3Cl)c2O1` [Compound 36, {[(2R)-8-(2,6-dichlorophenyl)-3,4-dihydro-2H-chromen-2-yl]methyl}amine hydrochloride], in data set [1], the inhibition constant (Ki) is no more than 10 nM. Moreover, the Emax on human 5-HT2C receptor worked out at 80%. For the same molecule, the EC50 at human 5-HT2C receptor is less than 50 nM. Besides, the “% Reduction food intake (vs vehicle)” value in data set [2] (30 mpk oral, 0.5 hour) was 86 ± 11%; in data set [2] (30 mpk oral, 2 hours), 72 ± 7%; in data set [2] (30 mpk oral, 4 hours), 65 ± 8%; in data set [2] (50 mpk oral, 0.5 hour) it was 83 ± 6%; in data set [2] (50 mpk oral, 2 hours) it was 77 ± 6%; in data set [2] (50 mpk oral, 4 hours), 67 ± 9%. In addition, the “% Reduction food intake (vs vehicle)” value in data set [3] (30 mpk oral, 0.5 hour) is recorded as 0 ± 16%; in data set [3] (30 mpk oral, 2 hours) it was 0 ± 8%; in data set [3] (30 mpk oral, 4 hours), 0 ± 9%; in data set [3] (50 mpk oral, 0.5 hour) it was 58 ± 9%; in data set [3] (50 mpk oral, 2 hours), 11 ± 17%; in data set [3] (50 mpk oral, 4 hours) it was 0 ± 13%.

`COc1ccccc1-c1cc(F)cc2c1O[C@@H](CN)C=C2` (as salt: hydrochloride) [Compound 65, {[(2R)-6-fluoro-8-(2-methoxyphenyl)-2H-chromen-2-yl]methyl}amine hydrochloride] displayed a melting point of 198 to 200 °C.

Turning to `NC[C@H]1C=Cc2cc(F)cc(-c3ccccc3Cl)c2O1` (as salt: hydrochloride) [Compound 64, {[(2R)-8-(2-chlorophenyl)-6-fluoro-2H-chromen-2-yl]methyl}amine hydrochloride], the melting point lay within 145 to 147 °C.

In turn, `NC[C@H]1C=Cc2cc(F)cc(-c3c(Cl)cccc3Cl)c2O1` (as salt: hydrochloride) [Compound 66, {[(2R)-8-(2,6-dichlorophenyl)-6-fluoro-2H-chromen-2-yl]methyl}amine hydrochloride] showed a melting point of 153 to 155 °C.

On to `Cc1cc(Cl)ccc1-c1c(F)ccc2c1O[C@@H](CN)CC2` (as salt: hydrochloride) [Compound 72, ((2R)-8-(4-Chloro-2-methylphenyl)-7-fluorochroman-2-yl)methanamine hydrochloride], for which the melting point was 100 to 102 °C.

The molecule `NC[C@H]1CCc2cc(F)cc(-c3c(Cl)cccc3Cl)c2O1` (as salt: hydrochloride) [Compound 57, {[(2R)-8-(2,6-dichlorophenyl)-6-fluoro-3,4-dihydro-2H-chromen-2-yl]methyl}amine hydrochloride] returned a melting point of 190 to 192 °C.

`Cc1ccccc1-c1c(Cl)ccc2c1O[C@@H](CN)CC2` (as salt: hydrochloride) [Compound 69, ((2R)-7-Chloro-8-o-tolylchroman-2-yl)methanamine hydrochloride] registered a melting point of 155 °C.

The molecule `NC[C@H]1CCc2cccc(-c3c(Cl)cccc3Cl)c2O1` (as salt: hydrochloride) [Compound 36, {[(2R)-8-(2,6-dichlorophenyl)-3,4-dihydro-2H-chromen-2-yl]methyl}amine hydrochloride] gave a melting point of 188 to 190 °C.

For the molecule `COc1ccccc1-c1cc(F)cc2c1O[C@@H](CN)CC2` (as salt: hydrochloride) [Compound 38, 1-[(2R)-6-fluoro-8-(2-methoxyphenyl)-3,4-dihydro-2H-chromen-2-yl]methanamine hydrochloride], the melting point is 100 °C (dec.).

Turning to `NC[C@H]1CCc2cc(F)cc(-c3ccccc3-c3ccccc3)c2O1` (as salt: hydrochloride), the melting point was determined as 98 °C.

`NC[C@H]1CCc2ccc(F)c(-c3ccccc3Cl)c2O1` (as salt: hydrochloride) [Compound 71, ((2R)-8-(2-chlorophenyl)-7-fluorochroman-2-yl)methanamine hydrochloride]: the melting point lay within 223 to 225 °C.

`NC[C@H]1CCc2ccc(Cl)c(-c3ccccc3Cl)c2O1` (as salt: hydrochloride): the melting point lay in the range of 220 to 222 °C.

For the molecule `CCNC[C@H]1CCc2cc(F)cc(-c3c(Cl)cccc3Cl)c2O1` (as salt: hydrochloride) [Compound 58, N-{[(2R)-8-(2,6-dichlorophenyl)-6-fluoro-3,4-dihydro-2H-chromen-2-yl]methyl}ethanamine hydrochloride], the melting point was greater than 225 °C.

The molecule `NC[C@H]1C=Cc2cc(F)cc(-c3cc(Cl)ccc3Cl)c2O1` (as salt: hydrochloride) [Compound 63, {[(2R)-8-(2,5-dichlorophenyl)-6-fluoro-2H-chromen-2-yl]methyl}amine hydrochloride] displayed a melting point of 217 to 219 °C.

Take `NC[C@H]1CCc2cccc(-c3ccccc3Cl)c2O1` [Compound 11, {[(2R)-8-(2-chlorophenyl)-3,4-dihydro-2H-chromen-2-yl]methyl}amine hydrochloride]: the Ki in data set [1] is no more than 10 nM. In addition, at human 5-HT2C receptor, the maximal response (Emax) amounted to 100% and the EC50 is less than 50 nM.

`CNC[C@H]1CCc2cc(F)cc(-c3ccccc3Cl)c2O1` [Compound 39, {[(2R)-8-(2-chlorophenyl)-6-fluoro-3,4-dihydro-2H-chromen-2-yl]methyl}methylamine hydrochloride]: the inhibition constant Ki in data set [1] was no more than 10 nM. In addition, on human 5-HT2C receptor, the Emax is 100% and the 50% effective concentration (EC50) is less than 50 nM.

Consider `CNC[C@H]1C=Cc2cccc(-c3c(Cl)cccc3Cl)c2O1` [Compound 59, {[(2R)-8-(2,6-dichlorophenyl)-2H-chromen-2-yl]methyl}methylamine hydrochloride], for which the Ki in data set [1] was no more than 10 nM. Moreover, on human 5-HT2C receptor, the Emax was determined as 90% and the EC50 is less than 50 nM.

For `NC[C@H]1CCc2cc(F)cc(-c3ccc(Cl)cc3Cl)c2O1` [Compound 47, {[(2R)-8-(2,4-dichlorophenyl)-6-fluoro-3,4-dihydro-2H-chromen-2-yl]methyl}amine hydrochloride], in data set [1], the Ki was greater than 50 nM. In addition, at human 5-HT2C receptor, the maximal effect (Emax) came out at 90% and the EC50 lay within 50 to 200 nM.

For the molecule `CNC[C@H]1CCc2cc(F)cc(-c3ccccc3C)c2O1` [Compound 43, {[(2R)-6-fluoro-8-(2-methylphenyl)-3,4-dihydro-2H-chromen-2-yl]methyl}methylamine hydrochloride], the Ki in data set [1] was no more than 10 nM. Also, at human 5-HT2C receptor, the Emax is 90% and the EC50 was in the range of 50 to 200 nM.

For the molecule `NC[C@H]1CCc2cc(F)cc(-c3ccccc3Cl)c2O1` [Compound 45, {[(2R)-8-(2-chlorophenyl)-6-fluoro-3,4-dihydro-2H-chromen-2-yl]methyl}amine hydrochloride], the inhibitory constant (Ki) in data set [1] is no more than 10 nM. In addition, at human 5-HT2C receptor, the maximal response (Emax) worked out at 90% and the EC50 was less than 50 nM.

Take `COc1ccccc1-c1cccc2c1O[C@@H](CN)CC2` [Compound 15, {[(2R)-8-(2-methoxyphenyl)-3,4-dihydro-2H-chromen-2-yl]methyl}amine hydrochloride]: the Ki in data set [1] is no more than 10 nM. At human 5-HT2C receptor, the Emax amounted to 90% and the concentration giving a half-maximal response (EC50) was less than 50 nM.

In the case of `NC[C@@H]1CCc2cccc(-c3ccc(Cl)cc3Cl)c2O1` [Compound 29, {[(2S)-8-(2,4-dichlorophenyl)-3,4-dihydro-2H-chromen-2-yl]methyl}amine hydrochloride], the inhibitory constant (Ki) in data set [1] lay within 10 to 50 nM. In addition, on human 5-HT2C receptor, the maximal response (Emax) came out at 80% and the concentration for a half-maximal effect (EC50) is greater than 200 nM.

Consider `CNC[C@H]1CCc2cc(F)cc(-c3ccc(Cl)cc3Cl)c2O1` [Compound 41, {[(2R)-8-(2,4-dichlorophenyl)-6-fluoro-3,4-dihydro-2H-chromen-2-yl]methyl}methylamine hydrochloride], for which, in data set [1], the Ki is 10 to 50 nM. Further, on human 5-HT2C receptor, the Emax is 90% and the 50% effective concentration (EC50) lay within 50 to 200 nM.

For the molecule `CNCC1C=Cc2cc(F)cc(-c3ccccc3Cl)c2O1` (centres unmarked) [Compound 61, {[8-(2-chlorophenyl)-6-fluoro-2H-chromen-2-yl]methyl}methylamine hydrochloride], the Ki in data set [1] was no more than 10 nM. Also, on human 5-HT2C receptor, the Emax came out at 90% and the EC50 was less than 50 nM.
